Measured values as given in patent US10858312B1, “Gossypol isocyanate ester compounds with antileukemic activities and a method of preparing the same” (SHAANXI PANLONG PHARMACEUTICAL GROUP LIMITED BY SHARE LTD., priority 2020, dated 2020).

Columns and labels:
Assay type in all cases: cell-based
[1] = system: Jurkat (acute T-cell leukemia); assay: CCK8 growth inhibition of leukemia cells, Jurkat; details: for IC50: Homo sapiens, Jurkat, 48 h, read-out: IC50 Jurkat
Method: (§1) Example 6: CCK8 Method to Detect the Growth Inhibitory Effect of Gossypol Isocyanate Ester Compounds on Three Kinds of Leukemia Cells
(§2) Cell lines: Jurkat (acute T-cell leukemia), HL-60 (human promyelocytic leukemia cells), K-562 (chronic myeloid leukemia), provided by the Affiliated Hospital of Guangdong Medical College. The cells were cultured in RPMI1640 medium containing 10% fetal bovine serum, penicillin […], streptomycin 100 mg/L, 37° C., 5% CO2, saturated humidity incubator, and the logarithmic growth phase cells were tested.
(§3) Test method: The logarithmic growth phase leukemia cell lines were taken, counted, and inoculated on a 96-well culture plate at a density of 1×10^5/mL, 100 μL per well. After 24 hours of cultivation, 100 μL of double-concentration medium containing different concentrations of compounds was added to each well. The medium containing the highest concentration of DMSO was used as the solvent control. After 48 hours of drug action, 20 μL of CCK8 color developing solution was added to each well, and the color was developed at 37° C. The OD450 was measured with a microplate reader until the absorbance was about 1.5. The inhibition rate was calculated using the formula: Inhibition Rate (%)=(1−Absorbance Value of Administration Group/Absorbance Value of Control Group)×100%
(§4) The half-inhibitory concentration of cells (IC50) was calculated by the Kou's method.

[2] = system: HL-60 (human promyelocytic leukemia cells); assay: CCK8 growth inhibition of leukemia cells, HL-60; details: for IC50: Homo sapiens, HL-60, 48 h, read-out: IC50 HL-60
Method: as §1, §2, §3, §4

[3] = system: K-562 (chronic myeloid leukemia); assay: CCK8 growth inhibition of leukemia cells, K-562; details: for IC50: Homo sapiens, K562, 48 h, read-out: IC50 K562
Method: as §1, §2, §3, §4

| SMILES | IC50 [1] [µM] | IC50 [2] [µM] | IC50 [3] [µM] | anti-leukemia activity (in words) ([1]; Jurkat cells, CCK8) | anti-leukemia activity (in words) ([2]; HL-60 cells, CCK8) | anti-leukemia activity (in words) ([3]; K562 cells, CCK8) |
| --- | --- | --- | --- | --- | --- | --- |
| Cc1cc2c(c(O)c1-c1c(C)cc3c(c1O)/C(=C/OC(=O)Nc1ccccc1)C(=O)C(O)=C3C(C)C)/C(=C/OC(=O)Nc1ccccc1)C(=O)C(O)=C2C(C)C [Compound 1, (1Z,1′Z)-(1,1′,6,6′-tetrahydroxy-5,5′-diisopropyl-3,3′-dimethyl-7,7′-dioxo-[2,2′-binaphthal-ene]-8,8′(7H,7′H)-diylidene)bis(methanylylidene) bis(phenylcarbamate)] | 18.3 | 31.7 | 37.1 |  |  |  |
| Cc1cc2c(c(O)c1-c1c(C)cc3c(c1O)/C(=C/OC(=O)Nc1ccc(N)cc1)C(=O)C(O)=C3C(C)C)/C(=C/OC(=O)Nc1ccc(N)cc1)C(=O)C(O)=C2C(C)C [Compound 3, ((8Z,8′Z)-1,1′,6,6′-tetrahydroxy-5,5′-diisopropyl-3,3′-dimethyl-7,7′-dioxo-[2,2′-binaphthalene]-8,8′(7H,7′H)-diylidene)bis(methaneylylidene) bis((4-aminophenyl)carbamate)] | 13 | 26.6 | 16.3 | active | active | active |
| Cc1cc2c(c(O)c1-c1c(C)cc3c(c1O)/C(=C/OC(=O)Nc1cccc4c(N)cccc14)C(=O)C(O)=C3C(C)C)/C(=C/OC(=O)Nc1cccc3c(N)cccc13)C(=O)C(O)=C2C(C)C [Compound 4, ((8Z,8′Z)-1,1′,6,6′-tetrahydroxy-5,5′-diisopropyl-3,3′-dimethyl-7,7′-dioxo-[2,2′-binaphthalene]-8,8′(7H,7′H)-diylidene)bis(methaneylylidene) bis((5-aminonaphthalen-1-yl)carbamate)] | 21.7 | 15.9 | 21.7 |  |  |  |
| Cc1cc(-c2ccc(NC(=O)O/C=C3\C(=O)C(O)=C(C(C)C)c4cc(C)c(-c5c(C)cc6c(c5O)/C(=C/OC(=O)Nc5ccc(-c7ccc(N)c(C)c7)cc5C)C(=O)C(O)=C6C(C)C)c(O)c43)c(C)c2)ccc1N [Compound 5, ((8Z,8′)-1,1′,6,6′-tetrahydroxy-5,5′-diisopropyl-3,3′-dimethyl-7,7′-dioxo-[2,2′-binaphthalene]-8,8′(7H,7′H)-diylidene)bis(methaneylylidene) bis((4′-amino-3,3′-dimethyl-[1,1′-biphenyl]-4-yl)carbamate)] | 32.6 | 28.4 | 48.8 |  |  |  |
| CCNC(=O)O/C=C1\C(=O)C(O)=C(C(C)C)c2cc(C)c(-c3c(C)cc4c(c3O)/C(=C/OC(=O)NCC)C(=O)C(O)=C4C(C)C)c(O)c21 [Compound 2, (1Z,1′Z)-(1,1′,6,6′-tetrahydroxy-5,5′-diisopropyl-3,3′-dimethyl-7,7′-dioxo-[2,2′-binaphtha-lene]-8,8′(7H,7′H)-diylidene)bis(methanylylidene) bis(ethylcarbamate)] | 68.2 | 92.2 | 49.1 |  |  |  |
